Like-named read-outs stand apart in the source and are kept apart here. Square brackets hold non-standard residues; d marks the D form. Peptide text beside a SMILES is read from it.
Columns and labels:
[1] = system: ET-1-induced hindpaw flinching; experiment: Blockade of ET-1-induced hindpaw flinching; format: in vivo, rat; conditions: for effect on ET-1 induced hindpaw flinching: antagonist 3 mM epineurial, 20, 10 and 0 min prior to ET-1 400 μM; for significance of difference from ET-1 alone in hindpaw flinching (FIG. 3): antagonist 3 mM, 20, 10 and 0 min prior to ET-1 400 μM
Text: (§1) Surgical Procedures. Adult male Sprague Dawley rats (175-225 g) were anesthetized with an intermediate-onset, short-acting volatile anesthetic (Sevaflurane, Abbott Laboratories, North Chicago, Ill.). After shaving of the hair over the left or right flank and incision of the skin, blunt dissection was made through the biceps femoris, the sciatic nerve exposed by careful microdissection away from the surrounding connective tissue, and gently elevated by insertion of a small curved hemostat placed beneath it. Following drug administration, as described below, the biceps femoris was closed with a single silk suture, and the skin closed with surgical staples.
(§2) Drug administration. The following drugs were applied epineurially: 1) 40-800 μM endothelin-1 (ET-1) (synthetic, 98% pure peptide content, American Peptides Co., Sunnyvale, Calif.); 2) the selective endothelin-A receptor antagonist, BQ-123 (American Peptides Co.; Sunnyvale, Calif.) at 3 mM; 3) the selective endothelin-B receptor antagonist, BQ-788 (American Peptides Co.; Sunnyvale, Calif.) at 3 mM; and 400 μM epinephrine (American Regent Laboratories, Inc., Shirley, N.Y.).
(§3) All drugs were dissolved in phosphate buffered saline (PBS, pH=7.4), and applied in 40 μl volumes to the epineurial surface of the exposed sciatic nerve (n=10 rats/condition). The total time for each drug application was 3-4 min. BQ-123 and BQ-788 were applied in 3 stages: 20 min prior to, 10 min prior to and 30 sec before ET-1 application. PBS was administered to control animals. Excess drug or PBS solution was absorbed by cotton gauze placed at the edge of the exposed nerve.
Morphine was administered systemically immediately before anesthesia (10 mg/kg, ip). Naloxone was administered systemically 20 min after the completion of ET-1 application (2 mg/kg, ip).
(§4) Behavioral evaluation. […] Behavioral measurements were then performed with animals freely moving on a flat surface enclosed by an inverted large Plexiglas cage. The total number of ipsilateral and contralateral spontaneous hindpaw flinches (operationally defined as complete lifting of the hindpaw off the testing surface) were counted for consecutive 5 minute periods for a total 60 minute observation period. The total duration of hindpaw lifting and time spent exploring were also recorded.

normal rats = conditions: cyclophosphamide treatment, FIGS. 11A and B
Protocol: For these experiments only, different groups of treated animals were tested (alternating fashion) on each test day to limit the amount of blood drawn.

CCI rats = experiment: Thermal hyperalgesia (hindpaw withdrawal latency) after sciatic nerve CCI; format: in vivo, rat
Protocol: (§5) CCI surgery. The sciatic nerve of a rat was exposed after blunt dissection of the biceps femoris. Four chromic gut ligatures (4-0) were placed around a […] section of sciatic nerve in the mid-thigh region. The ligatures were applied so that they constricted the diameter of the nerve just enough to impede circulation through the superficial vasculature (as visualized under an operating microscope at 40×). Sham-operated rats received an identical exposure of the left sciatic nerve without CCI. A coding system blinded the investigators to the nature of the surgery performed on individual rats.
Dexamethasone inhibits CCI-induced pain sensitivity. […] Thermal hyperalgesia was defined as a reduction in the latency to hindpaw withdrawal during a thermal stimulus applied to the plantar surface. […] Presumably, chemotactic signals overwhelmed the effects of DEX by 10 days to account for differences from baseline and between hindpaws at this timepoint (FIG. 8B).

circulating leukocytes = conditions: for Mean number of leukocytes: cyclophosphamide 100 mg/kg
Text: Complete blood counts were serially determined on all animals receiving treatments.

[2] = system: sciatic nerve in rats with a chronic constriction injury; experiment: Leukocytic profiles in sciatic nerve sections after CCI; format: in vivo, rat
Protocol: as §5
Histology. To compare the extent and type of cellular inflammation around the peripheral nerve due to CCI between DEX- and saline-treated rats, the ligated sciatic nerve was processed for histological analysis. At 3, 5, 7, and 10 days post-CCI, animals were euthanized with 100 mg/kg intraperitoneal sodium pentobarbital, and then transcardially perfused first with 50 ml of cold 0.9% NaCl, 1 ml/g body weight of 4% paraformaldehyde in 0.01 M phosphate buffered saline, pH 7.4 (PBS). A 2-3 cm section of sciatic nerve, or a 1 cm section of L5 and L6 spinal nerves, which included material at the ligation site, as well as that just proximal and distal to ligation, was placed in 0.01 M PBS, 4% paraformaldehyde to post-fix for 2 hours. Tissue was then embedded in paraffin, cut in 10-30 μm sections on a vibratome, and placed on glass slides. Slides were deparaffinized and then hydrated in distilled water prior to staining in freshly filtered Harris' hematoxylin for 6-15 min. After washing in running tap water for 2-5 min, sections were differentiated in 1% acid alcohol, washed briefly in tap water, and then placed in weak ammonia water until sections are bright blue. The sections were then washed thoroughly in running tap water, transferred to 80% ethanol, and then counterstained in eosin-phloxine solution prior to dehydration and mounting with Permount.
Quantitation of leukocytes in nerve sections. To detect leukocytes in injured peripheral nerve, both cellular and […] were used. To be included in the leukocyte cell count, leukocytes had to 1) have a nucleus which was clearly visible and characteristic of an infiltrating macrophage (bean-shaped nucleus), neutrophil (polymorphic nucleus) or lymphocyte (dense nucleus that fills the cytoplasm); 2) have a “foamy” macrophage appearance typical of a myelin-ingesting phagocytes; and 3) be present within the endoneurial space. Cells present within vascular spaces or containing nuclei that could not be clearly differentiated from activated Schwann cells, fibroblasts or endothelial cells were not counted.

rat sciatic nerve = experiment: Epineurial application of drug to rat sciatic nerve, spontaneous hindpaw flinching; format: in vivo
Text: as §1, §2, §3
In experiments involving repeated administration of ET-1, animals were re-anesthetized 75-80 min after surgery (time point after which no further hindpaw flinching was observed, as described below), and 400 μM ET-1 was applied in the same volume, as described above. Behavioral evaluation was performed, as described below, for an additional 60 min.
as §4
Data Analysis. The peak frequency of hindpaw flinching, effects at 10 min post-drug administration, and area-under-the-curve (without approximation) from 0-60 min were all used to describe response-concentration functions.

E1A cells = experiment: Microfluorometry (Fura-2) of intracellular calcium in E1A cells; format: cell-based, rat
Protocol: Microfluorometry in E1A cells. E1A cells (retrovirally-transformed rat dorsal root ganglion cells) were grown as a monolayer on poly-L-lysine coated coverslips in Dulbecco's modified eagle media supplemented with 10% fetal bovine serum at 37° C. in a humified atmosphere (5% CO2−95% air). Cells were used 48-72 hours after plating, at a confluence of 75 to 90%. The concentration of intracellular calcium was determined by dual excitation microfluorometry, using the calcium sensitive dye Fura-2 (Grynkiewicz, et.al., J. Biol. Chem. 260: 3440-3450, 1985). E1A cells were washed once with D-PBS (with Ca^++) and then incubated for 30 min at room temperature in D-PBS (with Ca^++) containing 7.5 μM Fura-2/AM and 0.00125% (wt/vol) pluronic-DMSO. The cells were then washed twice in D-PBS (with Ca^++) and incubated for an additional 30 minutes to allow cleavage of the Fura-2/AM to the active Fura-2.
Experiments were conducted with the coverslips in a perfusion chamber of 0.4 ml, with a constant flow rate of 4 ml/min. Each coverslip was equilibrated in D-PBS for 2 min prior to beginning an experiment. […]
Microfluorometry was performed with an inverted epifluoroscence microscope connected to a light source which provided two alternating wavelengths (Photon Technology International Deltascan). […] Background fluorescence was subtracted from each trial.

[3] = naloxone 2 mg/kg ip, 20 min after ET-1

## CC(C)C[C@@H]1NC(=O)[C@@H](C(C)C)NC(=O)[C@@H]2CCCN2C(=O)[C@@H](CC(=O)O)NC(=O)[C@@H](Cc2c[nH]c3ccccc23)NC1=O [BQ-123] (cyclo(L[dW][dD]P[dV]))
[1]
  effect on ET-1 induced hindpaw flinching: completely blocked
  significance of difference from ET-1 alone in hindpaw flinching (FIG. 3): significant at every time point after 5 min

## CCCC[C@@H](NC(=O)[C@@H](Cc1cn(C(=O)OC)c2ccccc12)NC(=O)[C@H](CC(C)(C)C)NC(=O)N1[C@H](C)CCC[C@@H]1C)C(=O)O [BQ-788]
[1]
  effect on ET-1 induced hindpaw flinching: reduced hindpaw flinching significantly only at the 40 and 45 min timepoints
  significance of difference from ET-1 alone in hindpaw flinching (FIG. 3): significant at 45 and 50 min

## O=P1(N(CCCl)CCCl)NCCCO1 (centres unmarked) [Cyclophosphamide, cyclophosphamide]
Normal rats
  analgesic effect with respect to thermal pain stimulation in normal animals: no analgesic effects
CCI rats; CYCLO 100 mg/kg alternate days×3 prior to CCI, until leukocyte counts returned toward normal 10 days post-surgery
  effect on hyperalgesia response in CCI-treated rats: blocked the hyperalgesia response
Circulating leukocytes; 100 mg/kg on alternate days×3 days, pre-operatively
  effect on circulating leukocyte numbers: markedly reduced
Circulating leukocytes; 1 day
  Mean number of leukocytes: 0.4 ± 0.1 10^3/ml
Circulating leukocytes; 3 days
  Mean number of leukocytes: 1.0 ± 0.3 10^3/ml
Circulating leukocytes; 5 days
  Mean number of leukocytes: 0.5 ± 0.4 10^3/ml
Circulating leukocytes; 8 days
  Mean number of leukocytes: 4.6 ± .6 10^3/ml
Circulating leukocytes; 10 days
  Mean number of leukocytes: 7.3 ± 1.8 10^3/ml
Circulating leukocytes; Baseline
  Mean number of leukocytes: 9.2 ± 0.7 10^3/ml
Circulating leukocytes; CYCLO-treated CCI rats, normal rats approximately 9×10^3
  Total white blood cell counts: < 1000 µL⁻¹

## C[C@@H]1C[C@H]2[C@@H]3CCC4=CC(=O)C=C[C@]4(C)[C@@]3(F)[C@@H](O)C[C@]2(C)[C@@]1(O)C(=O)CO [DEX, Dexamethasone]
CCI rats; DEX 1.5 mg/kg i.p. daily
  period post-CCI with differences from baseline and contralateral hindpaw eliminated: 3 to 7 days
[2]; 3 days post-CCI, six high-power fields (0.238 mm^2), mean ± S.D.
  Number of leukocytic profiles in sciatic nerve: 4.2 ± 0.92
[2]; 5 days post-CCI, six high-power fields, n = 1
  Number of leukocytic profiles in sciatic nerve: 12.8
[2]; 7 days post-CCI, six high-power fields, mean ± S.D.
  Number of leukocytic profiles in sciatic nerve: 23.3 ± 26.9
[2]; 10 days post-CCI, six high-power fields, mean ± S.D.
  Number of leukocytic profiles in sciatic nerve: 25.7 ± .9

## C=CCN1CC[C@]23c4c5ccc(O)c4O[C@H]2C(=O)CC[C@@]3(O)[C@H]1C5 [Naloxone]
[1]; [3]
  duration of reversal of the effect of morphine: approximately 10 min
  reversal of the effect of morphine on ET-1-induced flinching: rapidly reversed the effect of morphine

## CNC[C@H](O)c1ccc(O)c(O)c1 [epinephrine]
Rat sciatic nerve; 400 μM, 60 min observation period
  hindpaw flinching after epinephrine applied to sciatic nerve: no evidence of hindpaw flinching

## CN1CC[C@]23c4c5ccc(O)c4O[C@H]2[C@@H](O)C=C[C@H]3[C@H]1C5 [morphine]
[1]; morphine 10 mg/kg ip immediately before anesthesia, ET-1 400 μM
  effect on flinching induced by ET-1: completely blocked

## endothelin-1 [ET-1]
E1A cells; 400 μl pulse of 13.5 μM ET-1, resting level 50-100 nM
  intracellular Ca++ level reached after ET-1: ~500 nM
E1A cells; E1A cells, FIG. 7
  Fura-2 fluorescence during ET-1 administration: large, rapid, and transient increase
Rat sciatic nerve; 400 μM ET-1
  time of peak of flinching behavior and postural changes: ≤ 30 min
Rat sciatic nerve; 400 μM ET-1, 40 μl epineurial, 10-60 min post-administration, vs PBS
  repetitive, spontaneous hindpaw flinching: increased
Rat sciatic nerve; 800 μM
  effect at high concentration on hindpaw flinching: apparent inhibitory effect
Rat sciatic nerve; 40-800 μM tested
  concentration giving maximum frequency of hindpaw flinching: 400 µM
Rat sciatic nerve; 10 minutes post ET-1 administration, FIG. 4B, read-out: concentration of half-maximal effect on hindpaw flinching
  EC50: 300 µM
Rat sciatic nerve; same concentration of ET-1, muscle not nerve
  hindpaw flinching and postural changes after application onto or into muscles surrounding sciatic nerve: neither increased hindpaw flinching nor postural changes
Rat sciatic nerve; second 400 μM ET-1, 15-20 min after first 60 min testing period
  hindpaw flinching after second (repeat) treatment: did not produce hindpaw flinching that was significantly different from controls

Source: patent US6673832B1, “Methods for identifying compounds for treating pain” (priority 1998, dated 2004)
